In publication PMC4086859 (Journal of medicinal chemistry, 2014):
Counter-ions that a name gives are not always drawn.

How the values were obtained:
OVCAR-8 = assay: Cytotoxic activity, OVCAR-8 cells; type: cell-based; conditions: Homo sapiens, OVCAR-8, 96 h, read-out: EC50 OVCAR-8
NCI/ADR-RES = assay: Cytotoxic activity, NCI/ADR-RES cells; type: cell-based; conditions: Homo sapiens, 96 h, read-out: EC50 NCI/ADR-RES
[1] = biological target: tubulin (colchicine site) (Bos taurus, UniProt P81947+Q6B856); assay: Inhibition of [3H]colchicine binding to tubulin; parameters: species or system bovine; conditions: read-out: colchicine binding inhibition (%)
tubulin (colchicine site), sequence (P81947 whole entry): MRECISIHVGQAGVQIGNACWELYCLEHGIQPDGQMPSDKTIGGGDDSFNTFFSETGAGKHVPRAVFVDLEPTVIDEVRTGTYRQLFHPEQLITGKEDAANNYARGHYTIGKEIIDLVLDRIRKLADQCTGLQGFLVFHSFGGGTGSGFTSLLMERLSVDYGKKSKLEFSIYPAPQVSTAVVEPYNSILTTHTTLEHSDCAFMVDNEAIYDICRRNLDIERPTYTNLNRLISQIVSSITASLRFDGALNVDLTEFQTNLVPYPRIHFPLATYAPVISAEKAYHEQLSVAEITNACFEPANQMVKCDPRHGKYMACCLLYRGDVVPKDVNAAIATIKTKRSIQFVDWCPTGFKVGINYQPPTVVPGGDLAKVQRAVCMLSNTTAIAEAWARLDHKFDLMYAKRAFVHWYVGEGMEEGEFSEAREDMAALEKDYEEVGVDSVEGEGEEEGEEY
tubulin (colchicine site), sequence (Q6B856 whole entry): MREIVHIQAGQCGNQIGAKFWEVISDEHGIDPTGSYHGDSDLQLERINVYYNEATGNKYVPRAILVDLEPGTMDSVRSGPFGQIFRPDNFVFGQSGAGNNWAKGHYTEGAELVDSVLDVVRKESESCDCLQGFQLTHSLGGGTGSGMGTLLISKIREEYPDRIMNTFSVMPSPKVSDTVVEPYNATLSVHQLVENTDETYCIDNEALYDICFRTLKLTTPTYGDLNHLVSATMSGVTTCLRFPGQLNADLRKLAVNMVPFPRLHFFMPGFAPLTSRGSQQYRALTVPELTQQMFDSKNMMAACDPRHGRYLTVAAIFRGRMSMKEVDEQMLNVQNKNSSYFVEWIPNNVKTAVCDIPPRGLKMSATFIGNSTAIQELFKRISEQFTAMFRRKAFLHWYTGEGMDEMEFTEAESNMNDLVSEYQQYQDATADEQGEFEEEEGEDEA

OVCAR-8 cells = assay: Cell cycle analysis by FACS; type: cell-based, human; conditions: OVCAR-8, 1.0 μM, 24 h, P < 0.05

Structure (SMILES) | EC50 (OVCAR-8) | EC50 (NCI/ADR-RES) | inhibition at 5 µM [1] | proportion of cells arrested at G2/M compared to control cells (OVCAR-8 cells)
COc1ccc(/C=C\c2cc(OC)c(OC)c(OC)c2)cc1O [CA-4, combretastatin A-4] | 18 ± 4 nM | 13 ± 4 nM |  | 
c1ccc(-c2cccc(Nc3ncnc4cc5c(cc34)OCO5)c2)cc1 [Compound 1] |  |  | 72 ± 0.4% | significantly increased
c1ccc(-c2cccc(Nc3ncnc4cc5c(cc34)OCCCO5)c2)cc1 [Compound 3] |  |  | 34 ± 1% | 
CC(=O)O[C@H]1C(=O)[C@@]2(C)[C@H]([C@H](OC(=O)c3ccccc3)[C@]3(O)C[C@H](OC(=O)[C@H](O)[C@@H](NC(=O)c4ccccc4)c4ccccc4)C(C)=C1C3(C)C)[C@]1(OC(C)=O)CO[C@@H]1C[C@@H]2O [paclitaxel] | 5.5 ± 0.7 nM | 5000 nM |  | 
c1cc(Nc2ncnc3cc4c(cc23)OCCO4)cc(-c2ccc[nH]2)c1 [Compound 9, (7,8-Dihydro[1,4]dioxino[2,3-g]quinazolin-4-yl)-[3′-(pyrrol-2″-yl)phenyl]amine Hydrochloride] |  |  | 33 ± 7% | 
c1ccc(-c2cccc(Nc3ncnc4cc5c(cc34)OCCO5)c2)cc1 [Compound 2] |  | 350 ± 80 nM | 41 ± 7% | 
c1ccc(-c2cccc(Nc3ncnc4cc5c(cc34)OCCO5)c2)nc1 [Compound 6, (7,8-Dihydro[1,4]dioxino[2,3-g]quinazolin-4-yl)-[3′-(pyridin-yl-2″-yl)phenyl]amine Hydrochloride] |  |  | 25 ± 4% | 
Cl.c1cc(Nc2ncnc3cc4c(cc23)OCCO4)cc(-c2cccs2)c1 [Compound 5, (7,8-Dihydro[1,4]dioxino[2,3-g]quinazolin-4-yl)-[3′-(thien-2″-yl)phenyl]amine Hydrochloride] |  |  | 75 ± 0.8% | significantly increased
